Values joined by “and” are separate entries in the source; they are usually repeats but may differ in a detail not shown here. Equal entries are not always repeated.
Tests used:
[1] = Pharmacokinetic study in PXB-mice (human liver-chimeric)
[2] = tested on: HeLa-ACE2-TMPRSS2 cells; experiment: Intracellular concentrations of compounds (LC/MS), HeLa-ACE2-TMPRSS2 cells; settings: for Intracellular amount, avg / Intracellular amount, individual: 6 h; for intracellular compound, /1x10^6: calculated value per cell count; for intracellular compound, calculated value /20uL: from AUC against pmol standard curve
[3] = Hela ACE2 TMPRSS2, drug 10, duplicates
[4] = Hela ACE2 TMPRSS2, drug 50, duplicates
[5] = Hela ACE2 TMPRSS2, drug 100, duplicates

In the case of `CC(C)(C)[C@H](NC(=O)C(F)(F)F)C(=O)N1C[C@H]2[C@@H]([C@H]1C(=O)N[C@H](C#N)C[C@@H]1CCNC1=O)C2(C)C` [Nirmatrelvir, reference compound], the Plasma concentration ([1]; PXB-mice, i.v. 10 mg/kg, 480 min, individual mice, 10 mg/kg) is reported as 1.3 ng/mL and 2.2 ng/mL, the Plasma concentration ([1]; PXB-mice, i.v. 10 mg/kg, 8 hr, individual mice) is reported as 0 ng/mL and the Plasma concentration ([1]; PXB-mice, i.v. 10 mg/kg, 1440 min, individual mice, 10 mg/kg) is reported as 0.2 ng/ml (2×) and 0.9 ng/ml. The Plasma concentration ([1]; PXB-mice, i.v. 10 mg/kg, 24 hr, individual mice) was 0 ng/mL, the Plasma concentration ([1]; PXB-mice, p.o. 10 mg/kg, 10 min, individual mice, 10 mg/kg) was 889.5 ng/mL and 980.6 ng/mL and the Plasma concentration ([1]; PXB-mice, p.o. 10 mg/kg, 0.17 hr, individual mice, 10 mg/kg) was 890 ng/mL and 980 ng/mL. The Plasma concentration ([1]; PXB-mice, p.o. 10 mg/kg, 60 min, individual mice, 10 mg/kg) was 653.1 ng/mL and 318.8 ng/mL and 407 ng/mL, the Plasma concentration ([1]; PXB-mice, p.o. 10 mg/kg, 1 hr, individual mice, 10 mg/kg) was 650 ng/mL and 320 ng/mL and 410 ng/mL and the Plasma concentration ([1]; PXB-mice, p.o. 10 mg/kg, 240 min, individual mice, 10 mg/kg) was 34.6 ng/mL and 30.7 ng/mL. For the same compound, the Plasma concentration ([1]; PXB-mice, p.o. 10 mg/kg, 4 hr, individual mice, 10 mg/kg) was 30 ng/mL, the Plasma concentration ([1]; PXB-mice, p.o. 10 mg/kg, 480 min, individual mice, 10 mg/kg) was 4.4 ng/mL and 7.4 ng/mL and 18.7 ng/mL and the Plasma concentration ([1]; PXB-mice, p.o. 10 mg/kg, 8 hr, individual mice, 10 mg/kg) was 0 ng/mL and 10 ng/mL and 20 ng/mL. The Plasma concentration ([1]; PXB-mice, p.o. 10 mg/kg, 1440 min, individual mice, 10 mg/kg) was 0.6 ng/mL and 0.5 ng/mL, the Plasma concentration ([1]; PXB-mice, p.o. 10 mg/kg, 24 hr, individual mice) was 0 ng/mL and the “Oral F” value ([1]; male PXB-mouse 10 mg/kg i.v. and p.o., dose-normalized AUC ratio) was 56¶ %. It also gave a concentration at 10 min ([1]; male, PXB (human liver-chimeric), mouse, plasma, iv, 10 mg/kg, Plasma concentration, PXB-mice, i.v. 10 mg/kg, 10 min, individual mice) of 4250 ng/mL, a concentration at 0.17 hr ([1]; male, PXB (human liver-chimeric), mouse, plasma, iv, 10 mg/kg, Plasma concentration, PXB-mice, i.v. 10 mg/kg, 0.17 hr, individual mice) of 4250 ng/mL and a concentration at 60 min ([1]; male, PXB (human liver-chimeric), mouse, plasma, iv, 10 mg/kg, Plasma concentration, PXB-mice, i.v. 10 mg/kg, 60 min, individual mice) of 344 ng/mL. For the same compound, the concentration at 1 hr ([1]; male, PXB (human liver-chimeric), mouse, plasma, iv, 10 mg/kg, Plasma concentration, PXB-mice, i.v. 10 mg/kg, 1 hr, individual mice) was 340 ng/mL, the concentration at 480 min ([1]; male, PXB (human liver-chimeric), mouse, plasma, iv, 10 mg/kg, Plasma concentration, PXB-mice, i.v. 10 mg/kg, 480 min, individual mice) was 2.2 ng/mL and the concentration at 8 hr ([1]; male, PXB (human liver-chimeric), mouse, plasma, iv, 10 mg/kg, Plasma concentration, PXB-mice, i.v. 10 mg/kg, 8 hr, individual mice) was 0 ng/mL. The concentration at 24 hr ([1]; male, PXB (human liver-chimeric), mouse, plasma, iv, 10 mg/kg, Plasma concentration, PXB-mice, i.v. 10 mg/kg, 24 hr, individual mice) was 0 ng/mL, the Cmax ([1]; male, PXB (human liver-chimeric), mouse, plasma, po, 10 mg/kg) was 1160 ng/mL and the concentration at 10 min ([1]; male, PXB (human liver-chimeric), mouse, plasma, po, 10 mg/kg, Plasma concentration, PXB-mice, p.o. 10 mg/kg, 10 min, individual mice) was 1600 ng/mL. For the same compound, the concentration at 0.17 hr ([1]; male, PXB (human liver-chimeric), mouse, plasma, po, 10 mg/kg, Plasma concentration, PXB-mice, p.o. 10 mg/kg, 0.17 hr, individual mice) was 1600 ng/mL, the concentration at 240 min ([1]; male, PXB (human liver-chimeric), mouse, plasma, po, 10 mg/kg, Plasma concentration, PXB-mice, p.o. 10 mg/kg, 240 min, individual mice) was 47.2 ng/mL and the concentration at 4 hr ([1]; male, PXB (human liver-chimeric), mouse, plasma, po, 10 mg/kg, Plasma concentration, PXB-mice, p.o. 10 mg/kg, 4 hr, individual mice) was 50 ng/mL. The concentration at 1440 min ([1]; male, PXB (human liver-chimeric), mouse, plasma, po, 10 mg/kg, Plasma concentration, PXB-mice, p.o. 10 mg/kg, 1440 min, individual mice) was 0.6 ng/mL, the concentration at 24 hr ([1]; male, PXB (human liver-chimeric), mouse, plasma, po, 10 mg/kg, Plasma concentration, PXB-mice, p.o. 10 mg/kg, 24 hr, individual mice) was 0 ng/mL and the Plasma concentration ([1]; p.o., 10 min, individual animals (3 per time point), LC/MS/MS) was 889.46 ng/mL and 980.64 ng/mL. For the same compound, the Plasma concentration ([1]; p.o., 60 min, individual animals (3 per time point), LC/MS/MS) was 653.07 ng/mL and 318.79 ng/mL and 406.97 ng/mL, the Plasma concentration ([1]; p.o., 240 min, individual animals (3 per time point), LC/MS/MS) was 34.58 ng/mL and 30.74 ng/mL and the Plasma concentration ([1]; p.o., 480 min, individual animals (3 per time point), LC/MS/MS) was 4.42 ng/mL and 7.44 ng/mL and 18.67 ng/mL. The Plasma concentration ([1]; p.o., 1440 min, individual animals (3 per time point), LC/MS/MS) was 0.61 ng/mL and 0.54 ng/mL, the “Intracellular amount, avg” value ([2]; Hela ACE2 TMPRSS2, 10uM) was 0.5065 pmol(total) and the “Intracellular amount, individual” value ([2]; Hela ACE2 TMPRSS2, 10uM) was 0.5088 pmol(total) and 0.5041 pmol(total). For the same compound, the “Intracellular amount, avg” value ([2]; Hela ACE2 TMPRSS2, 50uM) was 1.799 pmol(total), the “Intracellular amount, individual” value ([2]; Hela ACE2 TMPRSS2, 50uM) was 1.518 pmol(total) and 2.08 pmol(total) and the “Intracellular amount, avg” value ([2]; Hela ACE2 TMPRSS2, 100uM) was 3.821 pmol(total). The “Intracellular amount, individual” value ([2]; Hela ACE2 TMPRSS2, 100uM) was 3.049 pmol(total) and 4.592 pmol(total), the “intracellular compound, pmol(total)” value [2, 3] was 0.5088 pmol and 0.5041 pmol and the “intracellular compound, /1x10^6” value [2, 3] was 0.2035 /1x10^6 and 0.2016 /1x10^6. For the same compound, the “intracellular compound, calculated value /20uL” value [2, 3] was 0.53 /20uL and 0.52 /20uL, the “intracellular compound, pmol(total)” value [2, 4] was 1.518 pmol and 2.08 pmol and the “intracellular compound, /1x10^6” value [2, 4] was 0.6073 /1x10^6 and 0.832 /1x10^6. The “intracellular compound, calculated value /20uL” value [2, 4] was 1.70 /20uL and 1.83 /20uL, the “intracellular compound, pmol(total)” value [2, 5] was 3.049 pmol and 4.592 pmol and the “intracellular compound, /1x10^6” value [2, 5] was 1.22 /1x10^6 and 1.837 /1x10^6. The “intracellular compound, calculated value /20uL” value [2, 5] was 3.90 /20uL and 4.04 /20uL.
